Measurements reported in patent publication US20060223996A1, “IL-12 modulatory compounds” (Synta Pharmaceuticals Corp., priority 2004, published 2006).

The molecules below were run on IL-12 (assay: Human in vitro assay: inhibition of IL-12 production in IFNγ/LPS- or IFNγ/SAC-stimulated human PBMC or THP-1 cells (ELISA)). Conditions: read-out: IC50 Range (representative in vitro IC50 data).
Format: cell-based
Source text: The biological activities of a heterocyclic compound can be evaluated by a number of cell-based assays. One of such assays can be conducted using cells from human peripheral blood mononuclear cells (PBMC) or human monocytic cell line (THP-1). The cells are stimulated with a combination of human interferon-γ (IFNγ) and lipopolysaccharide or a combination of IFNγ and Staphylococcus aureus Cowan I in the presence of a test compound. The level of inhibition of IL-12 production can be measured by determining the amount of p70 by using a sandwich ELISA assay with anti-human IL-12 antibodies. IC50 of the test compound can then be determined. Specifically, PBMC or THP-1 cells are incubated with the test compound. Cell viability was assessed using the bioreduction of MTS [3-(4,5-dimethylthiazol-2-yl)-5-(3-carboxymethoxyphenyl)-2-(4-sulfophenyl)-2H-tetrazolium](Promega, Madison, Wis.).
Human In Vitro Assay. Human PBMC were isolated by centrifugation using Ficoll-Paque (Pharmacia Biotech, Uppsala, Sweden) and prepared in RPMI medium supplemented with 10% fetal calf serum (FCS), 100 U/mL penicillin, and 100 μg/mL streptomycin. PBMC were plated in wells of a 96-well plate at a concentration of 5×10^5 cells/well, and primed by adding IFNγ (30 U/mL) for 22 h and stimulated by adding LPS (1 μg/mL), or by adding IFNγ (100 U/mL) and then stimulated by adding SAC (0.01%). A test pyrimidine compound was dissolved in DMSO, and added to wells of the 96-well plate. The final DMSO concentration was adjusted to 0.25% in all cultures, including the compound-free control. Human THP-1 cells were plated in wells, primed by adding IFNγ (100 U/mL) for 22 h and stimulated by adding SAC (0.025%) in the presence of different concentrations of the pyrimidine compound. Cell-free supernatants were taken 18 h later for measurement of cytokines. Cell viability was assessed using the bioreduction of MTS. Cell survival was estimated by determining the ratio of the absorbance in compound-treated groups versus compound-free control.
The supernatant was assayed for the amount of IL-12p40, IL-12p70, or IL-10 by using a sandwich ELISA with anti-human antibodies, i.e., a Human IL-12 p40 ELISA kit from R&D Systems (Berkeley, Calif.), and a Human IL-12 p70 or IL-10 ELISA kit from Endogen (Cambridge, Mass.). Assays were based on the manufacturer's instructions.
The biological activities of pyrimidine compounds were tested on human PBMC or THP-1 cells.

| IC50 [nM] | SMILES |
| --- | --- |
| < 1000 | Cc1[nH]c2ccc(NC(=O)c3cc(OCCc4ccccn4)nc(N4CCOCC4)n3)cc2c1C [Compound 2, 2-Morpholin-4-yl-6-(2-pyridin-2-yl-ethoxy)-pyrimidine-4-carboxylic acid (2,3-dimethyl-1H-indol-5-yl)-amide] |
| < 1000 | O=C(Nc1ccc2[nH]ccc2c1)c1cc(OCCc2ccccn2)nc(N2CCOCC2)n1 [Compound 4, 2-Morpholin-4-yl-6-(2-pyridin-2-yl-ethoxy)-pyrimidine-4-carboxylic acid (1H-indol-5-yl)-amide] |
| < 1000 | Cc1cccc(NC(=O)c2cc(OCCc3ccccn3)nc(N3CCOCC3)n2)c1 [Compound 5, 2-Morpholin-4-yl-6-(2-pyridin-2-yl-ethoxy)-pyrimidine-4-carboxylic acid m-tolylamide] |
| < 1000 | Cc1cccc(NC(=O)Nc2cc(OCCN3CCOCC3)nc(N3CCOCC3)n2)c1 [Compound 9, 1-[2-Morpholin-4-yl-6-(2-morpholin-4-yl-ethoxy)-pyrimidin-4-yl]-3-m-tolyl-urea] |
| < 1000 | CNCCOc1cc(NC(=O)Nc2cccc(C)c2)nc(N2CCOCC2)n1 [Compound 10, 1-[6-(2-Methylamino-ethoxy)-2-morpholin-4-yl-pyrimidin-4-yl]-3-m-tolyl-urea] |
| ≥ 1000 | Cc1cccc(NC(=O)Nc2cc(OCC(C)(C)O)nc(N3CCOCC3)n2)c1 [Compound 11, 1-[6-(2-Hydroxy-2-methyl-propoxy)-2-morpholin-4-yl-pyrimidin-4-yl]-3-m-tolyl-urea] |
| ≥ 1000 | Cc1ccc(NC(=S)Nc2cc(N3CCOCC3)nc(OCCN3CCOCC3)n2)cc1 [Compound 12, 1-[6-Morpholin-4-yl-2-(2-morpholin-4-yl-ethoxy)-pyrimidin-4-yl]-3-p-tolyl-thiourea] |
| < 1000 | Cc1[nH]c2ccc(NC(=O)c3cc(OCCN4CCOC4=O)nc(N4CCOCC4)n3)cc2c1C [Compound 21, 2-Morpholin-4-yl-6-[2-(2-oxo-oxazolidin-3-yl)-ethoxy]-pyrimidine-4-carboxylic acid (2,3-dimethyl-1H-indol-5-yl)-amide] |
| < 1000 | Cc1[nH]c2ccc(NC(=O)c3cc(N4CCOCC4)nc(N4CCOCC4)n3)cc2c1C [Compound 22, 2,6-Di-morpholin-4-yl-pyrimidine-4-carboxylic acid (2,3-dimethyl-1H-indol-5-yl)-amide] |
| < 1000 | Cc1ccc(NC(=O)c2cc(OCCN3CCOCC3)nc(N3CCOCC3)n2)cc1C [Compound 23, 2-Morpholin-4-yl-6-(2-morpholin-4-yl-ethoxy)-pyrimidine-4-carboxylic acid (3,4-dimethyl-phenyl)-amide] |
| < 1000 | Cc1c(C)n(C)c2ccc(NC(=O)c3cc(OCCN4CCOCC4)nc(N4CCOCC4)n3)cc12 [Compound 24, 2-Morpholin-4-yl-6-(2-morpholin-4-yl-ethoxy)-pyrimidine-4-carboxylic acid (1,2,3-trimethyl-1H-indol-5-yl)-amide] |
| < 1000 | NC(=O)c1cccc(NC(=O)c2cc(OCCN3CCOCC3)nc(N3CCOCC3)n2)c1 [Compound 25, 2-Morpholin-4-yl-6-(2-morpholin-4-yl-ethoxy)-pyrimidine-4-carboxylic acid (3-carbamoyl-phenyl)-amide] |
| < 1000 | CN(C)c1cccc(NC(=O)c2cc(OCCN3CCOCC3)nc(N3CCOCC3)n2)c1 [Compound 26, 2-Morpholin-4-yl-6-(2-morpholin-4-yl-ethoxy)-pyrimidine-4-carboxylic acid (3-dimethylamino-phenyl)-amide] |
| < 1000 | Cc1[nH]c2ccc(NC(=O)c3cc(OCC[N+]4([O-])CCOCC4)nc(N4CCOCC4)n3)cc2c1C [Compound 27, 2-Morpholin-4-yl-6-[2-(4-oxy-morpholin-4-yl)-ethoxy]-pyrimidine-4-carboxylic acid (2,3-dimethyl-1H-indol-5-yl)-amide] |
| < 1000 | Cc1[nH]c2ccc(NC(=O)c3cc(OCCN4CCOCC4)cc(N4CCOCC4)n3)cc2c1C [Compound 29, 6-Morpholin-4-yl-4-(2-morpholin-4-yl-ethoxy)-pyridine-2-carboxylic acid (2,3-dimethyl-1H-indol-5-yl)-amide] |
| < 1000 | Cc1[nH]c2ccc(NC(=O)c3cc(N4CCOCC4)cc(N4CCOCC4)n3)cc2c1C [Compound 30, 4,6-Di-morpholin-4-yl-pyridine-2-carboxylic acid (2,3-dimethyl-1H-indol-5-yl)-amide] |
| ≥ 1000 | Cc1c(C)n(C)c2ccc(N(C)C(=O)c3cc(OCCN4CCOCC4)nc(N4CCOCC4)n3)cc12 [Compound 31, 2-Morpholin-4-yl-6-(2-morpholin-4-yl-ethoxy)-pyrimidine-4-carboxylic acid methyl-(1,2,3-trimethyl-1H-indol-5-yl)-amide] |
| ≥ 1000 | Cc1ccc2nc(NC(=O)c3cc(OCCc4ccccn4)nc(N4CCOCC4)n3)sc2c1 [Compound 32, 2-Morpholin-4-yl-6-(2-pyridin-2-yl-ethoxy)-pyrimidine-4-carboxylic acid (6-methyl-benzothiazol-2-yl)-amide] |
| ≥ 1000 | CCn1c2ccccc2c2ccc(NC(=O)c3cc(OCCc4ccccn4)nc(N4CCOCC4)n3)cc21 [Compound 33, 2-Morpholin-4-yl-6-(2-pyridin-2-yl-ethoxy)-pyrimidine-4-carboxylic acid (9-ethyl-9H-carbazol-2-yl)-amide] |
| ≥ 1000 | Cc1cccc(NC(=O)c2cc(OCCc3ccccn3)nc(N3CCOCC3)n2)n1 [Compound 34, 2-Morpholin-4-yl-6-(2-pyridin-2-yl-ethoxy)-pyrimidine-4-carboxylic acid (6-methyl-pyridin-2-yl)-amide] |
| ≥ 1000 | Cc1ccnc(NC(=O)c2cc(OCCc3ccccn3)nc(N3CCOCC3)n2)c1 [Compound 35, 2-Morpholin-4-yl-6-(2-pyridin-2-yl-ethoxy)-pyrimidine-4-carboxylic acid (4-methyl-pyridin-2-yl)-amide] |
| ≥ 1000 | O=C(Nc1ccc2ncsc2c1)c1cc(OCCc2ccccn2)nc(N2CCOCC2)n1 [Compound 36, 2-Morpholin-4-yl-6-(2-pyridin-2-yl-ethoxy)-pyrimidine-4-carboxylic acid benzothiazol-6-ylamide] |
| ≥ 1000 | O=C(Nc1ccc2ccccc2c1)c1cc(OCCc2ccccn2)nc(N2CCOCC2)n1 [Compound 37, 2-Morpholin-4-yl-6-(2-pyridin-2-yl-ethoxy)-pyrimidine-4-carboxylic acid naphthalen-2-ylamide] |
| ≥ 1000 | O=C(Nc1ccc2ncccc2c1)c1cc(OCCc2ccccn2)nc(N2CCOCC2)n1 [Compound 38, 2-Morpholin-4-yl-6-(2-pyridin-2-yl-ethoxy)-pyrimidine-4-carboxylic acid quinolin-6-ylamide] |
| ≥ 1000 | O=C(Nc1cccc2ncccc12)c1cc(OCCc2ccccn2)nc(N2CCOCC2)n1 [Compound 39, 2-Morpholin-4-yl-6-(2-pyridin-2-yl-ethoxy)-pyrimidine-4-carboxylic acid quinolin-5-ylamide] |
| ≥ 1000 | O=C(Nc1ccc2c(c1)CCC2)c1cc(OCCN2CCOCC2)nc(N2CCOCC2)n1 [Compound 40, 2-Morpholin-4-yl-6-(2-morpholin-4-yl-ethoxy)-pyrimidine-4-carboxylic acid indan-5-ylamide] |
| ≥ 1000 | Cc1[nH]c2c(NC(=O)c3cc(OCCN4CCOCC4)nc(N4CCOCC4)n3)cccc2c1C [Compound 41, 2-Morpholin-4-yl-6-(2-morpholin-4-yl-ethoxy)-pyrimidine-4-carboxylic acid (2,3-dimethyl-1H-indol-7-yl)-amide] |
